The results in this text go back to patent US20130217664A1, “NOVEL COMPOUNDS USEFUL FOR THE TREATMENT OF DEGENERATIVE AND INFLAMMATORY DISEASES” (priority 2012, published 2013).

The IC50 is the point on the concentration scale where inhibition reaches its midpoint.

For one assay, the target named is T1, human JAK1 (Homo sapiens, UniProt P23458).
T1 construct: catalytic domain, amino acids 866-1154; catalog number PV4774; purchased Invitrogen PV4774
The assay is described as follows: JAK1 inhibition assay (polyGT substrate / Ulight-JAK1 peptide). The following applies: recombinant human JAK1 catalytic domain; polyGT or Ulight-JAK1 peptide assay. The format is biochemical. An outline of the steps:
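Signal scaled between vehicle and 10 μM staurosporine. Radiometric polyGT reactions ran 45 min at 30 °C, counted after phosphoric-acid stop. Ulight peptide reactions ran 60 min at room temperature, fluorescence read after adding Eu-PT66 detection mix with EDTA.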

In assay [1] the test system is pSTAT1(2)-luciferase reporter in HeLa cells triggered with human OSM. The assay is described as follows: JAK-STAT signalling assay. The format is cell-based. The following applies: Homo sapiens, HeLa, HeLa cells, pSTAT1(2)-luciferase reporter, human OSM 33 ng/mL; read-out: JAK-STAT IC50. As to the method: JAK-STAT Signalling Assay
HeLa cells were maintained in Dulbecco's Modified Eagle's Medium (DMEM) containing 10% heat inactivated fetal calf serum, 100 U/mL penicillin and 100 μg/mL streptomycin. HeLa cells were used at 70% confluence for transfection. 20,000 cells in 87 μL cell culture medium were transiently transfected with 40 ng pSTAT1(2)-luciferase reporter (Panomics), 8 ng of LacZ reporter as internal control reporter and 52 ng of pBSK using 0.32 μL Jet-PEI (Polyplus) as transfection reagent per well in 96-well plate format. After overnight incubation at 37° C., 5% CO2, transfection medium was removed. 81 μL of DMEM+1.5% heat inactivated fetal calf serum was added. 9 μL compound at 10× concentration was added for 60 min and then 10 μL of human OSM (Peprotech) at 33 ng/mL final concentration.
After overnight incubation at 37° C., 5% CO2 cells were lysed by adding 100 μL lysis buffer/well (PBS, 0.9 mM CaCl2, 0.5 mM MgCl2, 10% Trehalose, 0.05% Tergitol NP9, 0.3% BSA).
40 μL of cell lysate was used to read β-galactosidase activity by adding 180 μL β-Gal solution (30 μL ONPG 4 mg/mL+150 μL β-Galactosidase buffer (0.06 M Na2HPO4, 0.04 M NaH2PO4, 1 mM MgCl2)) for 20 min.
Luciferase activity was measured using 40 μL cell lysate plus 40 μL of Steadylite as described by the manufacturer (Perkin Elmer), on the Envision (Perkin Elmer).
The positive and negative controls were used to calculate z′ and ‘percent inhibition’ (PIN) values.
Percentage inhibition=((fluorescence determined in the presence of vehicle−fluorescence determined for sample with test compound present)divided by(fluorescence determined in the presence of vehicle−fluorescence determined for sample without trigger))*100.
PIN values were plotted for compounds tested in dose-response and EC50 values were derived.

Another assay concerns the target T2, human JAK3 (Homo sapiens, UniProt P52333).
T2 construct: catalytic domain (amino acids 781-1124; catalog number PV3855); purchased Invitrogen PV3855
The assay is described as follows: JAK3 inhibition assay. The format is biochemical. The following applies: recombinant human JAK3 catalytic domain; polyGT substrate. An outline of the steps:
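Radiometric kinase assay: 0.5 ng JAK3 with 2.5 μg polyGT in Tris pH 7.5/MgCl2 buffer, 1 μM ATP plus 0.25 μCi 33P-γ-ATP, 1% DMSO, 45 min at 30 °C, stopped with phosphoric acid.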

A further assay deals with T3, human TYK2 (Homo sapiens, UniProt P29597).
T3 construct: catalytic domain (amino acids 871-1187; catalog number 08-147); purchased Carna Biosciences 08-147
T3 sequence (P29597 871-1187): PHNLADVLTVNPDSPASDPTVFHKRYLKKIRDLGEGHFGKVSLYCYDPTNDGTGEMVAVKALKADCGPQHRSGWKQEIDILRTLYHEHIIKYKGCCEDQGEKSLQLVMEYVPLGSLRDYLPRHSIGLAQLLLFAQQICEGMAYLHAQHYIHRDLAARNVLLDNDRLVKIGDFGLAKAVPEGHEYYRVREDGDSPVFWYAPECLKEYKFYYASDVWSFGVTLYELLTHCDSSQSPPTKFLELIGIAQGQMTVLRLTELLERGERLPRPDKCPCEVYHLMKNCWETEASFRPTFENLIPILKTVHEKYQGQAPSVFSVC
The assay is described as follows: TYK2 inhibition assay. Type of assay: biochemical. The note with it: recombinant human TYK2 catalytic domain, polyGT substrate. An outline of the steps: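 Radiometric kinase reaction run 90 min at 30 °C, stopped with phosphoric acid, washed and scintillation-counted.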

T1 sequence (P23458 866-1154): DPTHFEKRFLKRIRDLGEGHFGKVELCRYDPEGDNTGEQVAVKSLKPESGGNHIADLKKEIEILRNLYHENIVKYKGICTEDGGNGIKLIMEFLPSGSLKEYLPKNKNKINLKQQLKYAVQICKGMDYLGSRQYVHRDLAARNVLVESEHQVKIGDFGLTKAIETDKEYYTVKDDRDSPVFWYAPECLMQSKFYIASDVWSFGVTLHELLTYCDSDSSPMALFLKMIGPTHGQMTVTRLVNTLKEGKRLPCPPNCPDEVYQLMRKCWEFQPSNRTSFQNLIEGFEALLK
T2 sequence (P52333 781-1124): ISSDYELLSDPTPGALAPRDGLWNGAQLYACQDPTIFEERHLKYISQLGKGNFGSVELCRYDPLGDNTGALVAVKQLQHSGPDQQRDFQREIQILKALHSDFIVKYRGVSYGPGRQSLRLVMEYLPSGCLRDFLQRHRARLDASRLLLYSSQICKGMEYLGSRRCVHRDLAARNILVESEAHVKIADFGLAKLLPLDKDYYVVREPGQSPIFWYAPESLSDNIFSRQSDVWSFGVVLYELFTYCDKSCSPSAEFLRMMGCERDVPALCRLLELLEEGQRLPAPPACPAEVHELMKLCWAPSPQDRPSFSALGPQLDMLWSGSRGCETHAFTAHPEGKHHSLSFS

On to `CCc1cc(-c2noc(COC)n2)ccc1N(C)c1cc2c(cn1)ncn2C` [Compound 157, N-(2-ethyl-4-(5-(methoxymethyl)-1,2,4-oxadiazol-3-yl)phenyl)-N,1-dimethyl-1H-imidazo[4,5-c]pyridin-6-amine], for which the IC50 on human JAK1 is 0.01 to 100 nM; in assay [1] it was over 1000 nM; at human JAK3, over 1000 nM; at human TYK2, 0.01 to 100 nM.

`CCC(=O)N1CC=C(c2ccc(N(C)c3cc4c(cn3)ncn4C)c(CC)c2)CC1` [Compound 158, 1-(4-(3-ethyl-4-(methyl(1-methyl-1H-imidazo[4,5-c]pyridin-6-yl)amino)phenyl)-5,6-dihydropyridin-1(2H)-yl)propan-1-one]: the IC50 at human JAK1 was in the range of 0.01 to 100 nM; in assay [1], 1 to 500 nM; on human JAK3 it was 101 to 500 nM; at human TYK2, 0.01 to 100 nM.

As for `CCc1cc(C(O)C(F)(F)F)ccc1N(C)c1cc2c(cn1)ncn2C` (stereo not drawn) [Compound 159, 1-(3-Ethyl-4-(methyl(1-methyl-1H-imidazo[4,5-c]pyridin-6-yl)amino)phenyl)-2,2,2-trifluoroethanol], the IC50 at human JAK1 is 0.01 to 100 nM; in assay [1], over 1000 nM; on human JAK3 it was 501 to 1000 nM; on human TYK2, 101 to 500 nM.

Take `CCc1cc(C(=O)NCCO)ccc1N(C)c1cc2c(cn1)ncn2C` [Compound 160, 3-ethyl-N-(2-hydroxyethyl)-4-(methyl(1-methyl-1H-imidazo[4,5-c]pyridin-6-yl)amino)benzamide]: the IC50 at human JAK1 is 0.01 to 100 nM; in assay [1] it was over 1000 nM; on human JAK3 it was over 1000 nM; at human TYK2, over 1000 nM.

On to `CCc1cc(-c2cccc(C#N)c2)ccc1N(C)c1cc2c(cn1)ncn2C` [Compound 163, 3′-ethyl-4′-(methyl(1-methyl-1H-imidazo[4,5-c]pyridin-6-yl)amino)biphenyl-3-carbonitrile], for which the IC50 at human JAK1 was in the range of 0.01 to 100 nM; in assay [1], 501 to 1000 nM; at human JAK3, 501 to 1000 nM; on human TYK2, 501 to 1000 nM.

With `CCc1cc(-c2ccccc2)ccc1N(C)c1cc2c(cn1)ncn2C` [Compound 164, N-(3-ethylbiphenyl-4-yl)-N,1-dimethyl-1H-imidazo[4,5-c]pyridin-6-amine], the IC50 is 0.01 to 100 nM on human JAK1, 501 to 1000 nM in assay [1], 101 to 500 nM on human JAK3 and 0.01 to 100 nM at human TYK2.

For `CCc1cc(C2=CCN(C(C)=O)CC2)ccc1N(C)c1cc2c(cn1)ncn2C` [Compound 168, 1-(4-(3-ethyl-4-(methyl(1-methyl-1H-imidazo[4,5-c]pyridin-6-yl)amino)phenyl)-5,6-dihydropyridin-1(2H)-yl)ethanone], the IC50 at human JAK1 fell in the range of 0.01 to 100 nM; in assay [1], 1 to 500 nM; on human JAK3 it was 101 to 500 nM; at human TYK2 it was 0.01 to 100 nM.

Consider `CCNC(=O)N1CC=C(c2ccc(N(C)c3cc4c(cn3)ncn4C)c(CC)c2)CC1` [Compound 172, N-ethyl-4-(3-ethyl-4-(methyl(1-methyl-1H-imidazo[4,5-c]pyridin-6-yl)amino)phenyl)-5,6-dihydropyridine-1(2H)-carboxamide], for which the IC50 is 0.01 to 100 nM on human JAK1, 1 to 500 nM in assay [1], 101 to 500 nM on human JAK3 and 0.01 to 100 nM at human TYK2.

Consider `CCc1cc(-c2nnc(C)o2)ccc1N(C)c1cc2c(cn1)ncn2C` [Compound 177, N-(2-Ethyl-4-(5-methyl-1,3,4-oxadiazol-2-yl)phenyl)-N,1-dimethyl-1H-imidazo[4,5-d]pyridin-6-amine], for which the IC50 on human JAK1 is 0.01 to 100 nM; in assay [1] it was 501 to 1000 nM; at human JAK3 it was over 1000 nM; at human TYK2 it was 0.01 to 100 nM.

In the case of `CCc1cc(-c2nc(C)no2)ccc1N(C)c1cc2c(cn1)ncn2C` [Compound 178, N-(2-Ethyl-4-(3-methyl-1,2,4-oxadiazol-5-yl)phenyl)-N,1-dimethyl-1H-imidazo[4,5-d]pyridin-6-amine], the IC50 was 0.01 to 100 nM on human JAK1, 501 to 1000 nM in assay [1], over 1000 nM at human JAK3 and 101 to 500 nM at human TYK2.

Take `CCc1cc(-c2cncc(C#N)c2)ccc1N(C)c1cc2c(cn1)ncn2C` [Compound 189, 5-(3-ethyl-4-(methyl(1-methyl-1H-imidazo[4,5-c]pyridin-6-yl)amino)phenyl)nicotino-nitrile]: the IC50 was 0.01 to 100 nM at human JAK1, over 1000 nM in assay [1], over 1000 nM at human JAK3 and 101 to 500 nM on human TYK2.

Take `CCc1cc(CNC(=O)OC)ccc1N(C)c1cc2c(cn1)ncn2C` [Compound 191, Methyl 3-ethyl-4-(methyl(1-methyl-1H-imidazo[4,5-c]pyridin-6-yl)amino)benzyl carbamate]: the IC50 on human JAK1 fell in the range of 0.01 to 100 nM; in assay [1] it was 501 to 1000 nM; on human JAK3 it was 101 to 500 nM; on human TYK2 it was 101 to 500 nM.

As to `CCc1cc(C2=CCN(C(=O)CCC#N)CC2)ccc1N(C)c1cc2c(cn1)ncn2C` [Compound 196, 4-(4-(3-ethyl-4-(methyl(1-methyl-1H-imidazo[4,5-c]pyridin-6-yl)amino)phenyl)-5,6-dihydropyridin-1(2H)-yl)-4-oxobutanenitrile], the IC50 at human JAK1 is 0.01 to 100 nM; in assay [1] it was 501 to 1000 nM; on human JAK3 it was 101 to 500 nM; at human TYK2, 0.01 to 100 nM.

Consider `CCc1cc(C2=CCN(C(=O)C3(C#N)CC3)CC2)ccc1N(C)c1cc2c(cn1)ncn2C` [Compound 198, 1-(4-(3-ethyl-4-(methyl(1-methyl-1H-imidazo[4,5-c]pyridin-6-yl)amino)phenyl)-1,2,3,6-tetrahydropyridine-1-carbonyl)cyclopropane-carbonitrile], for which the IC50 was in the range of 0.01 to 100 nM at human JAK1, 501 to 1000 nM in assay [1], 101 to 500 nM at human JAK3 and 0.01 to 100 nM on human TYK2.

For `CCc1cc(C2=CCN(C(=O)CC(C)(C)O)CC2)ccc1N(C)c1cc2c(cn1)ncn2C` [Compound 200, 1-(4-(3-ethyl-4-(methyl(1-methyl-1H-imidazo[4,5-c]pyridin-6-yl)amino)phenyl)-5,6-dihydropyridin-1(2H)-yl)-3-hydroxy-3-methylbutan-1-one], the IC50 on human JAK1 was in the range of 0.01 to 100 nM; in assay [1], 501 to 1000 nM; at human JAK3, 101 to 500 nM; on human TYK2, 0.01 to 100 nM.

For the molecule `CCc1cc(C2=CCN(C(=O)NC3(C)CC3)CC2)ccc1N(C)c1cc2c(cn1)ncn2C` [Compound 202, 4-(3-ethyl-4-(methyl(1-methyl-1H-imidazo[4,5-c]pyridin-6-yl)amino)phenyl)-N-(1-methylcyclopropyl)-5,6-dihydropyridine-1(2H)-carboxamide], the IC50 lay in the range of 0.01 to 100 nM on human JAK1, 1 to 500 nM in assay [1], 101 to 500 nM at human JAK3 and 0.01 to 100 nM at human TYK2.

On to `CCc1cc(C2=CCN(C(=O)NC#N)CC2)ccc1N(C)c1cc2c(cn1)ncn2C` [Compound 203, N-cyano-4-(3-ethyl-4-(methyl(1-methyl-1H-imidazo[4,5-c]pyridin-6-yl)amino)phenyl)-5,6-dihydropyridine-1(2H)-carboxamide], for which the IC50 on human JAK1 is 0.01 to 100 nM; in assay [1], over 1000 nM; on human JAK3, 0.01 to 100 nM; at human TYK2, 0.01 to 100 nM.

With `CCc1cc(C2=CCN(C(=O)NC)CC2)ccc1N(C)c1cc2c(cn1)ncn2C` [Compound 204, 4-(3-ethyl-4-(methyl(1-methyl-1H-imidazo[4,5-c]pyridin-6-yl)amino)phenyl)-N-methyl-5,6-dihydropyridine-1(2H)-carboxamide], the IC50 at human JAK1 was in the range of 0.01 to 100 nM; in assay [1], 1 to 500 nM; on human JAK3 it was 0.01 to 100 nM; on human TYK2, 0.01 to 100 nM.
